Experimental data as given in PubChem BioAssay (NCI).
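Following 48 hours of exposure in 96-well plates, responses at five concentrations were used to interpolate endpoints linearly. GI50: concentration for 50% inhibition of growth. TGI denotes the concentration required for complete inhibition of growth.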

Key:
Test in all cases: NCI anticancer screen, dose series, 48 h
[1] = test system: DU-145 prostate
[2] = test system: PC-3 prostate
[3] = test system: BT-549 breast
[4] = test system: NCI/ADR-RES ovarian
[5] = test system: MDA-MB-435
[6] = test system: HS 578T breast
[7] = test system: DMS 273 small cell lung
[8] = test system: KM20L2 colon
[9] = test system: M19-MEL melanoma

With `COc1nc2c(cc1S(=O)(=O)c1ccccc1)CCc1c-2cnn1-c1ccccc1Cl` the GI50 [1] was over 100000 nM, the TGI [1] was over 100 µM and the GI50 [2] was 3090 nM. It also gave a TGI [2] of over 100 µM, a GI50 [3] of 3.49 µM and a TGI [3] of over 100 µM. It also gave a GI50 [4] of 8.24 µM, a TGI [4] of over 100 µM and a GI50 [5] of 8.94 µM. For the same compound, the TGI [5] was over 100 µM, the GI50 [6] was 4.7 µM and the TGI [6] was over 100 µM.
With `NS(=O)(=O)c1ccc(-n2nc(-c3ccc(Br)cc3)ccc2=O)cc1` the GI50 [1] was over 10000 nM, the TGI [1] was over 10 µM and the GI50 [2] was over 10000 nM. For the same compound, the TGI [2] was over 10 µM, the GI50 [3] was over 10 µM and the TGI [3] was over 10 µM. For the same compound, the GI50 [4] was over 10 µM, the TGI [4] was over 10 µM and the GI50 [5] was 3.72 µM. The TGI [5] was over 10 µM, the GI50 [6] was over 10 µM and the TGI [6] was over 10 µM.
Work on `COc1ccc(-n2cc(-c3ccc(OC)c(OC)c3)[nH]c2=S)cc1Cl` yielded a GI50 [1] of over 100000 nM, a TGI [1] of over 100 µM and a GI50 [2] of over 100000 nM. The TGI [2] was over 100 µM, the GI50 [4] was over 100 µM and the TGI [4] was over 100 µM. It also gave a GI50 [5] of over 100 µM, a TGI [5] of over 100 µM and a GI50 [6] of 38.9 µM. For the same compound, the TGI [6] was over 100 µM.
For `O=C1c2ccccc2-c2c1c1cc3c(cc1c(=O)n2CCCCl)OCO3`, the GI50 [1] was over 100000 nM, the TGI [1] was over 100 µM and the GI50 [2] was 42700 nM. It also gave a TGI [2] of over 100 µM, a GI50 [3] of 45.9 µM and a TGI [3] of over 100 µM. The GI50 [4] was 24.9 µM, the TGI [4] was over 100 µM and the GI50 [5] was 29.4 µM. For the same compound, the TGI [5] was over 100 µM, the GI50 [6] was over 100 µM and the TGI [6] was over 100 µM.
For `COc1ccccc1NC(=O)c1ccc(/C=C/C(=O)c2nccn2C)cc1`, the GI50 [1] was 504 nM, the TGI [1] was 1.09 µM and the GI50 [2] was 628 nM. It also gave a TGI [2] of 1.65 µM, a GI50 [3] of 0.509 µM and a TGI [3] of 1.19 µM. It also gave a GI50 [4] of 0.806 µM, a TGI [4] of 9.77 µM and a GI50 [5] of 0.548 µM. It also gave a TGI [5] of 1.3 µM, a GI50 [6] of 1.1 µM and a TGI [6] of 9.8 µM.
`Cn1cc(C2=C(c3ccc(OC[C@@H](O)CO)cc3)C(=O)NC2=O)c2ccccc21` was tested, and the GI50 [1] was over 25000 nM, the TGI [1] was over 25 µM and the GI50 [2] was over 25000 nM. The TGI [2] was over 25 µM, the GI50 [3] was over 25 µM and the TGI [3] was over 25 µM. It also gave a GI50 [4] of over 25 µM, a TGI [4] of over 25 µM and a GI50 [5] of over 25 µM. The TGI [5] was over 25 µM, the GI50 [6] was 7.87 µM and the TGI [6] was over 25 µM.
Work on `CCN1CCN(c2nc(NCCNc3ccnc4cc(Cl)ccc34)c3ccccc3n2)CC1` yielded a GI50 [1] of 2170 nM, a TGI [1] of 9.14 µM and a GI50 [2] of 2400 nM. It also gave a TGI [2] of 15.7 µM, a GI50 [3] of 2.01 µM and a TGI [3] of 5.39 µM. It also gave a GI50 [4] of 4.57 µM, a TGI [4] of 25.8 µM and a GI50 [5] of 1.64 µM. It also gave a TGI [5] of 3.14 µM, a GI50 [6] of 2.19 µM and a TGI [6] of 7.36 µM.
Compound `CN(C)CCNc1nc2ccccc2c2[nH]c3ccccc3c12` has a GI50 [1] of 1060 nM, a TGI [1] of 6.93 µM and a GI50 [2] of 574 nM. The TGI [2] was 2.8 µM, the GI50 [3] was 2.58 µM and the TGI [3] was 8.83 µM. The GI50 [4] was 1.02 µM, the TGI [4] was 7.86 µM and the GI50 [5] was 0.42 µM. It also gave a TGI [5] of 1.71 µM, a GI50 [6] of 4.01 µM and a TGI [6] of 13.6 µM.
`O=c1[nH]c(=O)n(C2CC(O)C(CO)O2)cc1C#Cc1c(F)c(F)c(F)c(F)c1F` (stereo not given) gave a TGI [7] of over 100 µM, a TGI [8] of over 100 µM and a TGI [9] of over 100 µM.
In the case of `O=C(O)/C=C/C(=O)Nc1ncn[nH]1`, the TGI [1] is reported as over 100 µM, the TGI [2] is reported as over 100 µM and the TGI [3] is reported as over 100 µM. The TGI [4] was over 100 µM, the TGI [5] was over 100 µM and the TGI [6] was over 100 µM.
Compound `ClCc1ccccc1CSc1ncnc2nc[nH]c12` has a GI50 [1] of over 60000 nM, a TGI [1] of over 60 µM and a GI50 [2] of over 60000 nM. For the same compound, the TGI [2] was over 60 µM, the GI50 [3] was over 60 µM and the TGI [3] was over 60 µM. It also gave a GI50 [4] of over 60 µM, a TGI [4] of over 60 µM and a GI50 [5] of over 60 µM. The TGI [5] was over 60 µM, the GI50 [6] was over 60 µM and the TGI [6] was over 60 µM.
`COC(=O)c1c2c(c(C)[n+]([O-])c1C)C(=O)C=CC2=O` gave a GI50 [1] of 1820 nM, a TGI [1] of 3.22 µM and a GI50 [3] of 1.72 µM. For the same compound, the TGI [3] was 3.14 µM, the GI50 [4] was 2.33 µM and the TGI [4] was 7.78 µM. The GI50 [5] was 1.79 µM, the TGI [5] was 3.31 µM and the GI50 [6] was 2.84 µM. The TGI [6] was 8.64 µM.
`CN(C)c1ccc2c(c1)oc(=O)c1ccccc12` was tested, and the TGI [1] was 23 µM, the TGI [2] was 30.5 µM and the TGI [3] was 17.1 µM. It also gave a TGI [4] of 44.9 µM, a TGI [5] of 23.1 µM and a TGI [6] of 97.2 µM.
`Clc1ccc(Cc2nc3cc4ccccc4cc3[nH]2)cc1` gave a GI50 [1] of 17100 nM, a TGI [1] of over 100 µM and a GI50 [2] of 7120 nM. The TGI [2] was over 100 µM, the GI50 [3] was 14.1 µM and the TGI [3] was over 100 µM. The GI50 [4] was 22.9 µM, the TGI [4] was over 100 µM and the GI50 [5] was 27.8 µM. The TGI [5] was over 100 µM, the GI50 [6] was 12.4 µM and the TGI [6] was 67.7 µM.
For `O=C1CCC(NC(=O)c2ccccc2)C(=O)N1` (stereo not given), the TGI [1] was over 100 µM, the TGI [2] was over 100 µM and the TGI [3] was over 100 µM. The TGI [4] was over 100 µM, the TGI [5] was over 100 µM and the TGI [6] was over 100 µM.
With `COc1cccc(-c2nc(-c3cnccn3)n(Cc3ccccc3)n2)c1` the TGI [1] was over 100 µM, the TGI [2] was over 100 µM and the TGI [3] was over 100 µM. For the same compound, the TGI [5] was over 100 µM.
`Cn1c(-c2nonc2N)nc2cnccc21` showed a GI50 [1] of over 25000 nM, a TGI [1] of over 25 µM and a GI50 [2] of over 25000 nM. For the same compound, the TGI [2] was over 25 µM, the GI50 [3] was 17.6 µM and the TGI [3] was over 25 µM. It also gave a GI50 [4] of over 25 µM, a TGI [4] of over 25 µM and a GI50 [5] of over 25 µM. For the same compound, the TGI [5] was over 25 µM, the GI50 [6] was 14.9 µM and the TGI [6] was over 25 µM.
With `OC(c1cccc(C(F)(F)F)c1)c1cnccc1NC1CCCCCC1` (stereo not given) the GI50 [1] was 2770 nM, the TGI [1] was 7.53 µM and the GI50 [2] was 1530 nM. It also gave a TGI [2] of 4.65 µM, a GI50 [3] of 2.13 µM and a TGI [3] of 5.47 µM. The GI50 [4] was 1.85 µM, the TGI [4] was 4.18 µM and the GI50 [5] was 1.66 µM. For the same compound, the TGI [5] was 3.13 µM, the GI50 [6] was 2.04 µM and the TGI [6] was 5.57 µM.
Compound `CCOC(=O)CCCO` has a TGI [8] of over 100 µM.
`CN(C)CCNC(=O)c1cccc2nc3c(Cl)cccc3nc12` showed a TGI [7] of over 100 µM, a TGI [8] of 32.2 µM and a TGI [9] of 13.1 µM.
`O=C(Cc1ccc(/C=C/C(=O)c2ncc[nH]2)cc1)Nc1ccc(Cl)cc1` showed a GI50 [1] of 1700 nM, a TGI [1] of 7.39 µM and a GI50 [2] of 2390 nM. It also gave a TGI [2] of 7.45 µM, a GI50 [3] of 3.46 µM and a TGI [3] of 11.2 µM. The GI50 [4] was 5.02 µM, the TGI [4] was over 25 µM and the GI50 [5] was 4.14 µM. For the same compound, the TGI [5] was over 25 µM, the GI50 [6] was 18.8 µM and the TGI [6] was over 25 µM.
`Fc1ccc(-c2nn(-c3ccccc3)cc2-c2nc3ccccc3o2)cc1` showed a GI50 [1] of 5650 nM, a TGI [1] of 19.4 µM and a GI50 [2] of 491 nM. For the same compound, the TGI [2] was over 100 µM, the GI50 [3] was 2.97 µM and the TGI [3] was 21.4 µM. It also gave a GI50 [4] of 3.57 µM, a TGI [4] of over 100 µM and a GI50 [5] of 1.79 µM. It also gave a TGI [5] of 3.41 µM, a GI50 [6] of 6.48 µM and a TGI [6] of 66.5 µM.
